Test results as given in patent US10642156B2, “Resist base material, resist composition and method for forming resist pattern” (Mitsubishi Gas Chemical Company, Inc., priority 2015, dated 2020).

Tests used:
[1] = 10% thermal reduction temperature by thermogravimetry (TG); assay type: physicochemical; details: nitrogen gas stream, 10° C./min to 500° C.
Experimental: (3) Thermal Reduction Temperature
“EXSTAR 6000 DSC” apparatus manufactured by SII NanoTechnology Inc. was used. About 5 mg of a sample was placed in an unsealed container made of aluminum, and the temperature was raised to 500° C. at a temperature increase rate of 10° C./min in a nitrogen gas (30 mL/min) stream. In this operation, 10% thermal reduction temperature was measured.

[2] = Test on safe solvent solubility of compound; assay type: physicochemical; details: 23° C., ultrasound 30 minutes, visually observed; for Safety solvent solubility test CHN: cyclohexanone (CHN); for Safety solvent solubility test PGME: propylene glycol monomethyl ether (PGME); for Safety solvent solubility test PGMEA: propylene glycol monomethyl ether acetate (PGMEA)
Experimental: (1) Test on Safe Solvent Solubility of Compound
The solubility of the compound in cyclohexanone (CHN), propylene glycol monomethyl ether (PGME), and propylene glycol monomethyl ether acetate (PGMEA) was evaluated according to the following standard using the dissolution amount in each solvent. For the measurement of the dissolution amount, the compound was precisely weighed into a test tube at 23° C., and the target solvent was added thereto at a predetermined concentration. Ultrasound was applied for 30 minutes in an ultrasonic cleaning machine. Then, the state of the liquid was visually observed.
Evaluation A: 20% by mass≤dissolution amount
Evaluation B: 10% by mass≤dissolution amount<20.0% by mass
Evaluation C: Dissolution amount<10% by mass

SMILES	10% thermal reduction temperature [1] [°C]	Safety solvent solubility test CHN [2]	Safety solvent solubility test PGME [2]	Safety solvent solubility test PGMEA [2]
Oc1ccc(C2=CC(C(c3ccc(I)cc3)c3cc(-c4ccc(O)cc4)ccc3O)C(O)C=C2)cc1 (stereo not drawn) [BiF-I-1]	≥ 300	A (Evaluation A: 20% by mass≤dissolution amount)	A (Evaluation A: 20% by mass≤dissolution amount)	A (Evaluation A: 20% by mass≤dissolution amount)
COc1cc(I)cc(C(c2cc(C3C=CC(O)=CC3)ccc2O)C2C=C(C3=CCC(O)C=C3)C=CC2O)c1 (stereo not drawn) [BiF-I-2]	≥ 300	A (Evaluation A: 20% by mass≤dissolution amount)	A (Evaluation A: 20% by mass≤dissolution amount)	A (Evaluation A: 20% by mass≤dissolution amount)
Oc1ccc(-c2ccc(O)c(C(c3cccc(I)c3)c3cc(-c4ccc(O)cc4)ccc3O)c2)cc1 [BiF-I-3]	≥ 300	A (Evaluation A: 20% by mass≤dissolution amount)	A (Evaluation A: 20% by mass≤dissolution amount)	A (Evaluation A: 20% by mass≤dissolution amount)
